# Assay results reported in patent publication US8853194B2, “Sterol derivatives and their synthesis and use” (priority 2009, dated 2014).
# Values joined by “and” are separate entries in the source; they are usually repeats but may differ in a detail not shown here. Identical values can stand only once. Like-named read-outs stand apart in the source and are kept apart here.
# Tests used:
# [1] = from LD50 and anti-tumor dose in mice
# Source text: I. Experiment Item: the anti-tumor therapeutic index of CL168
# [2] = system: mouse sarcoma cells S180
# Description: Ascites mice S180 and H22 that had been vaccinated 7 days were sacrificed by cervical, from which ascites were obtained under sterile conditions respectively; the obtained ascites were washed twice with culture medium RPMI1640, and prepared to a 2×10^7/ml suspension in sterile physiological saline. The suspension of cell S180 was inoculated subcutaneously in the right axillas of 40 mice (0.1 ml/mouse) to produce solid tumor models; while the suspension of cell H22 was inoculated in abdominal cavities of 40 mice (0.2 ml/mouse) by conditional means under sterile conditions to produce ascites tumor models.
# 90 mice were randomly divided into 9 groups of 3 types, wherein the first type group was a normal control group, the second type groups were S180 solid tumor groups including a positive (cyclophosphamide) control group, a negative control group, a low dose group and a high dose group, and the third type groups were H22 ascites groups including a positive (cyclophosphamide) control group, a negative control group, a low dose group and a high dose group. There were 10 mice in each group. The experiment was repeated for three times.
# […], the negative control group was injected same volume of corn oil, and the positive control group was injected cyclophosphamide injection solution with the dose of 0.02 g/(Kg.d). The used injection volume was 0.1 ml/mouse and the injection was given as intraperitoneal injection every other day for 15 days. During the 15 days, general activities, fur, feces, etc. of the mice were daily observed. 24 hours after the last administration, mice that had been inoculated subcutaneously with S180 were sacrificed by cervical, from which tumors, thymus and spleen were taken out. After the last administration, mice that had been inoculated in abdominal cavities with H22 were conventionally bred continually, weighted and observed the survival time every day until all the mice in the negative group were dead.
# After finishing the administration in all mice in the solid tumor group, the mice were sacrificed and their spleens and livers were weighed by electronic balance. The spleen index was equivalent to the spleen weight (mg) of mice in each group divided by the weight of the mice, while the liver index was equivalent to the liver weight […] divided by the weight (g) of the mice.
# On the next day after drug withdrawal, the mice in the solid-tumor […] group were weighed and sacrificed by cervical, wherein the serum was collected by eye bleeding for later use in subsequent experiments. Tumor tissues were dissected and weighed by electronic balance. The tumor inhibition rate was calculated as follows. Tumor Inhibition Rate(%)=[(mean tumor weight of negative control group−mean tumor weight of treatment group)/mean tumor weight of control group]×100%
# [3] = system: CAM vessels; experiment: CAM assay, effect on tumor angiogenesis; type: in vivo, German Roman embryonated eggs; conditions: 72 hours incubation
# Description: A sterile gelatin sponge, previously made into disks with diameter of 5 mm by a hole puncher, was used as sample carrier. […] There were 3 dose groups, wherein 5 μl (low dose group, with a dose volume of 2 μg/embryo), 10 μl (middle dose group, with a dose volume of 4 μg/embryo), and 20 μl (high dose group, with a dose volume of 8 μg/embryo) of the solution were added respectively into gelatin sponge slices by a quantitative liquid transfer. The sponge slices were dried in the sterile environment.
# A sterilized egg was placed into a 37° C. incubator with its air chamber upward. In the 7th day, the embryo was positioned on a super-clean bench and sterilized by ethanol, and then it was drilled by a dental drill to form a little hole in the top of the embryo. Egg shell and shell membrane around the hole were carefully removed to form an opening of about 1.2 cm×1.2 cm; after determining a sample-adding site, the air chamber membrane was carefully pricked at the separation place between the chamber and the yolk by a syringe needle; through the prick hole 1-2 drops of sterilized water was injected, which made the chamber membrane and the CAM membrane be separated; after gently removing the upper layer of the chamber membrane with forceps, the CAM membrane in the lower layer was exposed.
# A drug-containing carrier was placed, at the junction area of the CAM membrane and the yolk sac membrane, on a site where vessels were less, and then sealed with sterilized transparent adhesive tape to continue to incubate for 72 hours.
# After the incubation, the transparent adhesive tape stopped on the top of the air chamber was gently removed by forceps; a mixture of methanol/acetone (1:1, 1-2 ml) was gently added; the room temperature was remained constant for 10 minutes. Then, the CAM membrane was carefully peeled off and placed on a glass slide for observing and taking photos. The effect of the compound on angiogenesis was assessed by counting the numbers of large, middle, small blood vessels radiated by the carrier.
# [4] = system: ICR mice; experiment: Intraperitoneal injection LD50 for mouse (KORBER's method); type: in vivo; conditions: for Animal deaths: 10 mice, in 7 days
# Description: I. Experiment Item: Intraperitoneal injection LD50 for mouse (KORBER's method)
# ICR mice (SPF grade), with a weight range of 18-22 g, provided by Vital River Laboratories (VRL) in Beijing, China, were used. There were 5 treatment groups in total, wherein 2000 mg/kg was the highest dose, and the others decreased to 0.8 times, i.e. 1600 mg/kg, 1280 mg/kg, 1024 mg/kg and 819.2 mg/kg. The mice were randomly divided into groups. Each group had 10 mice with half male and half female. Each mouse was introperitoneal injected (0.2 ml/10 g. Observed 3-7 days, a variety of animal responses and the amount of dead mice in each group were recorded. LD50 and confidence limits were calculated by the modified Karber method(Korbor) according to the mortality rate of animals in each group.
# [5] = system: VEGF; conditions: 16 mg/kg (low dose group), OD at 450 nm
# Description: Before taking tumors out, blood was collected by eye bleeding from mice in the four groups, i.e. the negative control group, the positive CTX control group, the high dose (32 mg/kg) group and the low dose (16 mg/kg) group.
# 1.1 Preparing reagents, samples and standards;
# 1.2 Adding the prepared samples and standards, and reacting for 90 minutes at 37° C.;
# 1.3 Washing the plate twice, adding biotinylated antibody working solution, and reacting for 60 minutes at 37° C.;
# 1.4 Washing the plate for three times, adding ABC working solution, and reacting for 30 minutes at 37° C.;
# 1.5 Washing the plate for five times, adding TMB color liquid, and reacting in dark for 15 minutes at 37° C.;
# 1.6 Adding TMB stop solution, and measuring OD value at 450 nm.
# [6] = S180 sarcoma mice, low dose 16 mg/kg i.p. every other day for 15 days
# [7] = mice, intraperitoneal injection, modified Karber method
structure (smiles),measurement,setting,value
"CC(C)CCC[C@@H](C)[C@H]1CC[C@@H]2[C@]1(C)CC[C@H]1[C@]23C=C[C@]2(CC(=O)CC[C@]12C)OO3 [CL168-6, 5α,8α-cyclicobioxygen-6-cholesten-3-one]",anti-tumor therapeutic index (TI),[1],49.3
same,anti-tumor therapeutic index (TI),[1]; listed as CL168,about 49.3
same,Tumor weight (g),"[2]; S180 sarcoma mice, high dose 32 mg/kg i.p. every other day for 15 days",0.629 ± 0.133^(3) g
same,Tumor inhibition rate (%),"[2]; S180 sarcoma mice, high dose 32 mg/kg i.p. every other day for 15 days, 32 mg/kg",54.58%
same,Tumor weight (g),[2]; [6],0.771 ± 0.407^ g
same,Weight increase,[2]; [6],6.71 ± 1.22 g
same,Tumor inhibition rate (%),"[2]; S180 sarcoma mice, low dose 16 mg/kg i.p. every other day for 15 days, 16 mg/kg",44.33%
same,Liver index (100 g/g),"[2]; mouse, in vivo, ip, 16 mg/kg",4.45 ± 0.19 100 g/g
same,Spleen index (mg/g),"[2]; mouse, in vivo, ip, 16 mg/kg",5.32 ± 0.68^(2)(4) mg/g
same,Liver index (100 g/g),"[2]; mouse, in vivo, ip, 32 mg/kg",4.38 ± 0.13 100 g/g
same,Spleen index (mg/g),"[2]; mouse, in vivo, ip, 32 mg/kg",5.34 ± 0.73^(2)(4) mg/g
same,Weight increase,"[2]; mouse, in vivo, ip, 32 mg/kg",6.00 ± 1.11 g
same,Large vessels (number of the vessels),[3]; 2 ug/embryo,3.5 ± 1.8
same,Middle vessels (number of the vessels),[3]; 2 ug/embryo,13.2 ± 3.7
same,Small vessels (number of the vessels),[3]; 2 ug/embryo,8.8 ± 2.3
same,Large vessels (number of the vessels),[3]; 4 ug/embryo,3.6 ± 1.9
same,Middle vessels (number of the vessels),[3]; 4 ug/embryo,11.2 ± 3.2
same,Small vessels (number of the vessels),[3]; 4 ug/embryo,6.5 ± 2.5
same,Large vessels (number of the vessels),[3]; 8 ug/embryo,2.5 ± 2.0
same,Middle vessels (number of the vessels),[3]; 8 ug/embryo,12.6 ± 5.6
same,Small vessels (number of the vessels),[3]; 8 ug/embryo,4.0 ± 2.8
same,Animal deaths,[4]; 819.2 mg/kg i.p.,0
same,Animal deaths,[4]; 1024 mg/kg i.p.,1
same,Animal deaths,[4]; 1280 mg/kg i.p.,3
same,Animal deaths,[4]; 1600 mg/kg i.p.,6
same,Animal deaths,[4]; 2000 mg/kg i.p.,8
same,Death in the 12 hours after administration,"[4]; 819.2-2000 mg/kg i.p., first 12 hours",no death appeared
same,LD50,[4]; [7],1479.11 mg/kg and 1479 mg/kg
same,LD50 95% confidence interval,[4]; [7],1304.19 to 1677.49 mg/kg
same,OD value of serum VEGF,[5],0.2064 ± 0.0114^□
